{
  "source": "patent US10335453B2",
  "about": "“Compositions and methods for improving sexual function” (Nymox Corporation, priority 2017, dated 2019)",
  "key": {"patients with BPH": {"tested_on": "patients with BPH", "assay": "Example 1: Sexual Function Questionnaire (SFQ), treatment naïve BPH patients, one intraprostatic injection, 12 months follow-up", "format": "in vivo, human", "settings": "at 12 months", "method": "Three hundred and seventy (370) patients with BPH and with no prior history of any conventional approved medical or surgical treatment (“treatment naïve”) for BPH were given an intraprostatic injection of either (a) NX-1207 (2.5 mg) in phosphate buffered saline pH 7.2 (“PBS”) (n=213) or (b) PBS alone (n=157), under double-blind conditions by a urologist in an office setting under ultrasound guidance. These patients were followed for 12 months after treatment and their progress was monitored by urological investigations. Prior to their treatment each patient's sexual function was assessed by history and each patient completed a Sexual Function Questionnaire (“SFQ”) which scored from 0 to 12 points the degree to which the patient considered they had any problems with 1. lack of sex drive, 2. ability to get and keep an erection, and 3. problems with ejaculation, (Problem Assessment Scale of the Brief Male Sexual Function Inventory). A higher score indicates improvement with a better sexual functional self-assessment and less of a sexual problem; a lower score indicates worsening with more of a sexual problem. Many approved BPH medications and treatments are associated with lower scores. The SFQ was subsequently re-administered 12 months post-treatment. The difference from baseline score in the SFQ was compared in NX-1207 patients vs results in patients who received PBS alone."}, "[1]": {"tested_on": "BPH patients with significant sexual problems", "assay": "Example 2: SFQ, treatment naïve BPH patients with significant sexual problems (baseline SFQ<=3), one intraprostatic injection, 12 months", "format": "in vivo, human", "settings": "at 12 months", "method": "One hundred twenty three (123) BPH patients with significant sexual problems and with no prior history of any conventional approved medical or surgical treatment (“treatment naïve”) for BPH were given an intraprostatic injection of either (a) NX-1207 (2.5 mg) in phosphate buffered saline pH 7.2 (“PBS”) (n=75) or (b) PBS alone (n=48), under double-blind conditions by a urologist in an office setting under ultrasound guidance. These patients were followed for 12 months after treatment and their progress was monitored by urological investigations. Prior to their treatment each patient's sexual function was assessed by history and each patient completed a Sexual Function Questionnaire (“SFQ”) which scored from 0 to 12 points the degree to which the patient considered they had any problems with 1. lack of sex drive, 2. ability to get and keep an erection, and 3. problems with ejaculation; (Problem Assessment Scale of the Brief Male Sexual Function Inventory). A higher score indicates improvement with a better sexual functional self-assessment and less of a sexual problem; a lower score indicates worsening with more of a sexual problem. Many approved BPH medications and treatments, and conditions are associated with lower scores. All 123 BPH patients in this group had baseline pre-treatment SFQ scores<=3 points indicating significant sexual problems. […]"}, "BPH patients [2]": {"tested_on": "BPH patients", "assay": "Example 3: SFQ mean change, treatment naïve BPH patients, two NX-1207 injections vs PBS followed by one NX-1207 injection", "settings": "human, in vivo", "method": "One hundred and fifty six (156) BPH patients with no prior history of any conventional approved medical or surgical treatment (“treatment naïve”) for BPH were given an intraprostatic injection of either (a) NX-1207 (2.5 mg) in phosphate buffered saline pH 7.2 (“PBS”) (n=88) or (b) PBS alone (n=68), under double-blind conditions by a urologist in an office setting under ultrasound guidance. All patients were followed for a period of 12.6-51.1 months and then treated by a second open-label injection of NX-1207 (2.5 mg) in PBS. Prior to their treatment each patient's sexual function was assessed by history and each patient completed a Sexual Function Questionnaire (“SFQ”) which scored from 0 to 12 points the degree to which the patient considered they had any problems with 1. lack of sex drive, 2. ability to get and keep an erection, and 3. problems with ejaculation, (Problem Assessment Scale of the Brief Male Sexual Function Inventory). A higher score indicates improvement with a better sexual functional self-assessment and less of a sexual problem; a lower score indicates worsening with more of a sexual problem. Many approved BPH medications and treatments are associated with lower scores. The SFQ was subsequently re-administered 6 months post second treatment. […]"}, "BPH patients [3]": {"tested_on": "BPH patients", "assay": "Example 4: proportion with no worsening or improvement in SFQ, two NX-1207 injections vs PBS followed by one NX-1207 injection", "set-up": "species or system human", "settings": "in vivo", "method": "One hundred and fifty (150) BPH patients with no prior history of any conventional approved medical or surgical treatment (“treatment naïve”) for BPH were given an intraprostatic injection of either (a) NX-1207 (2.5 mg) in phosphate buffered saline pH 7.2 (“PBS”) (n=83) or (b) PBS alone (n=67), under double-blind conditions by a urologist in an office setting under ultrasound guidance. All patients were followed for a period of 12.6-51.1 months and then treated by a second open-label injection of NX-1207 (2.5 mg) in PBS. Prior to their treatment each patient's sexual function was assessed by history and each patient completed a Sexual Function Questionnaire (“SFQ”) which scored from 0 to 12 points the degree to which the patient considered they had any problems with 1. lack of sex drive, 2. ability to get and keep an erection, and 3. problems with ejaculation, (Problem Assessment Scale of the Brief Male Sexual Function Inventory). A higher score indicates improvement with a better sexual functional self-assessment and less of a sexual problem; a lower score indicates worsening with more of a sexual problem. Many approved BPH medications and treatments are associated with lower scores. The SFQ was subsequently re-administered 6 months post second treatment. […]"}, "BPH patients [4]": {"tested_on": "BPH patients", "assay": "Example 5: SFQ long-term mean change, treatment naive BPH patients, one injection, 12.6-51.1 months", "format": "in vivo, human", "settings": "at 12.6-51.1 months", "method": "One hundred and fifty (150) BPH patients with no prior history of any conventional approved medical or surgical treatment (“treatment naive”) for BPH were given an intraprostatic injection of either (a) (2.5 mg) NX-1207 (2.5 mg) in phosphate buffered saline pH 7.2 (“PBS”) (n=83) or (b) PBS alone (n=67) under double-blind conditions by a urologist in an office setting under ultrasound guidance. These patients were followed for 12.6-51.1 months after treatment and their progress was monitored by urological investigations. Prior to their treatment each patient's sexual function was assessed by history and each patient completed a Sexual Function Questionnaire (“SFQ”) which scored from 0 to 12 points the degree to which the patient considered they had any problems with 1. lack of sex drive, 2. ability to get and keep an erection, and 3. problems with ejaculation; (Problem Assessment Scale of the Brief Male Sexual Function Inventory). A higher score indicates improvement with a better sexual functional self-assessment and less of a sexual problem; a lower score indicates worsening with more of a sexual problem. Many approved BPH medications and treatments are associated with lower scores. The SFQ was subsequently re-administered 12.6-51.1 months post-treatment."}, "BPH patients [5]": {"tested_on": "BPH patients", "assay": "Example 6: proportion of treatment-naive BPH patients with SFQ<=3, NX-1207 vs PBS, 12.6-51.1 months", "format": "in vivo, human", "settings": "at 12.6-51.1 months", "method": "Three hundred twenty four (324) BPH patients were given an intraprostatic injection of either (a) NX-1207 (2.5 mg) in phosphate buffered saline pH 7.2 (“PBS”) (n=189) or (b) PBS alone (n=135), under double-blind conditions by a urologist in an office setting under ultrasound guidance. These patients were followed for 12.6-51.1 months after treatment and their progress was monitored by urological investigations. Prior to their treatment each patient's sexual function was assessed by history and each patient completed a Sexual Function Questionnaire (“SFQ”) which scored from 0 to 12 points the degree to which the patient considered they had any problems with 1. lack of sex drive, 2. ability to get and keep an erection, and 3. problems with ejaculation; (Problem Assessment Scale of the Brief Male Sexual Function Inventory). A higher score indicates improvement with a better sexual functional self-assessment and less of a sexual problem; a lower score indicates worsening with more of a sexual problem. Many approved BPH medications and treatments are associated with lower scores. Eighty nine (89) BPH patients in this group had baseline pre-treatment SFQ scores<=3 points indicating significant sexual problems. The SFQ was subsequently re-administered 12.6-51.1 months post-treatment. […]"}, "BPH patients [6]": {"tested_on": "BPH patients", "assay": "Example 7: proportion of BPH patients with SFQ<=3, NX-1207 in treatment naive vs previously treated patients", "format": "in vivo, human", "settings": "at 12.6-51.1 months", "method": "Three hundred and twenty four (324) BPH patients were given an intraprostatic injection of either (a) NX-1207 (2.5 mg) in phosphate buffered saline pH 7.2 (“PBS”) (n=189) or (b) PBS alone (n=135), under double-blind conditions by a urologist in an office setting under ultrasound guidance. These patients were followed for 12.6-51.1 months after treatment and their progress was monitored by urological investigations. Prior to their treatment each patient's sexual function was assessed by history and each patient completed a Sexual Function Questionnaire (“SFQ”) which scored from 0 to 12 points the degree to which the patient considered they had any problems with 1. lack of sex drive, 2. ability to get and keep an erection, and 3. problems with ejaculation; (Problem Assessment Scale of the Brief Male Sexual Function Inventory). A higher score indicates improvement with a better sexual functional self-assessment and less of a sexual problem; a lower score indicates worsening with more of a sexual problem. Many approved BPH medications and treatments are associated with lower scores. Eighty nine (89) BPH patients in this group had baseline pre-treatment SFQ scores<=3 points indicating significant sexual problems. The SFQ was subsequently re-administered 12.6-51.1 months post-treatment. […]"}, "prostate gland": {"tested_on": "prostate gland", "settings": "human, in vivo; cited from earlier work"}},
  "note": "Peptide text beside a SMILES is read from it.",
  "data": [
    {"molecule": "CC[C@H](C)[C@H](N)C(=O)N[C@@H](CC(=O)O)C(=O)N[C@@H](CCC(N)=O)C(=O)N[C@@H](CCC(N)=O)C(=O)N[C@H](C(=O)N[C@@H](CC(C)C)C(=O)N[C@@H](CO)C(=O)N[C@@H](CCCNC(=N)N)C(=O)N[C@H](C(=O)N[C@@H](CCCCN)C(=O)N[C@@H](CC(C)C)C(=O)N[C@@H](CCC(=O)O)C(=O)N[C@H](C(=O)N[C@@H](CCCCN)C(=O)N[C@@H](CCCNC(=N)N)C(=O)N[C@@H](CS)C(=O)N[C@@H](CC(C)C)C(=O)O)[C@@H](C)CC)[C@@H](C)CC)C(C)C", "note": "[SEQ ID NO: 66, IDQQVLSRIKLEIKRCL] (H-IDQQVLSRIKLEIKRCL-OH)", "values": [
      {"measurement": "sexual adverse events attributable to NX-1207", "setting": "patients with BPH", "value": "no significant incidence of sexual adverse events"},
      {"measurement": "sexual adverse events attributable to NX-1207", "setting": "[1]", "value": "no significant incidence of sexual adverse events"},
      {"measurement": "sexual adverse events attributable to NX-1207", "setting": "BPH patients [2]", "value": "no significant incidence of sexual adverse events"},
      {"measurement": "sexual adverse events attributable to NX-1207", "setting": "BPH patients [3]", "value": "no significant incidence of sexual adverse events"},
      {"measurement": "sexual adverse events attributable to NX-1207", "setting": "BPH patients [4]", "value": "no significant incidence of sexual adverse events"},
      {"measurement": "sexual adverse events attributable to NX-1207", "setting": "BPH patients [5]", "value": "no significant incidence of sexual adverse events"},
      {"measurement": "sexual adverse events attributable to NX-1207", "setting": "BPH patients [6]", "value": "no incidence of significant sexual adverse events"},
      {"measurement": "safety profile", "setting": "prostate gland", "value": "excellent safety profile"}
    ]}
  ]
}
